Reference: patent US20130324597A1, “PHARMACEUTICAL COMPOSITION COMPRISING TRANS-[…] AND ITS USE IN THE TREATMENT OF INFECTIONS” (priority 2010, published 2013)

Assays:
[1] = system: all the strains; assay: MIC of pure components, all strains of Table 9; format: cell-based; conditions: strains of Table 9, tested concentrations
Excerpt: (§1) Following a method allowing the dissolution of the active blend in a Mueller Hinton gelose the MIC has been measured with pure components of the active blends 1 to 9.

[2] = system: Enterobacteriaceae; assay: MIC of pure components in Mueller Hinton gelose; format: cell-based; conditions: Enterobacteriaceae n = 13
Excerpt: as §1

[3] = system: Staphylococcus And Enterococcus; assay: MIC of pure components in Mueller Hinton gelose; format: cell-based; conditions: Staphylococcus And Enterococcus n = 14
Excerpt: as §1

[4] = system: Other Gram - rods; assay: MIC of pure components in Mueller Hinton gelose; format: cell-based; conditions: Other Gram - rods n = 15
Excerpt: as §1

[5] = system: MRSA; conditions: bibliographic data on the main compound; cited from earlier work
[6] = system: Other gram−; assay: Killing-curves, log reduction time; format: cell-based; conditions: at MIC × 4
Excerpt: (§2) Results are expressed in minutes necessary to reduce bacterial counts by 1 log.

[7] = system: All strains (60 strains); assay: Killing-curves, log reduction time; format: cell-based; conditions: at MIC × 4
Excerpt: as §2

[8] = system: Enterobacteria; assay: Killing-curves, log reduction time; format: cell-based; conditions: at MIC × 4
Excerpt: as §2

[9] = system: Cocci G+; assay: Killing-curves, log reduction time; format: cell-based; conditions: at MIC × 4
Excerpt: as §2

[10] = system: Enterococcus; assay: MIC in Mueller Hinton gelose; format: cell-based, Enterococcus sp
Excerpt: (§3) Following a method allowing the dissolution of the active blend in a Mueller Hinton gelose the following MIC has been measured with pure trans-cinnamaldehyde (CNM) and with the active blends 1 to 8 disclosed in table 1.
as §1

[11] = system: E. faecium; assay: MIC in Mueller Hinton gelose; format: cell-based, Enterococcus faecium
Excerpt: as §3, §1

[12] = system: P. aeruginosa; assay: MIC in Mueller Hinton gelose; format: cell-based, Pseudomonas aeruginosa
Excerpt: as §3, §1

[13] = system: E. coli; assay: MIC in Mueller Hinton gelose; format: cell-based, Escherichia coli
Excerpt: as §3, §1

[14] = system: Staphylococcus; assay: MIC in Mueller Hinton gelose; format: cell-based
Excerpt: as §3, §1

[15] = system: E. aerogenes; assay: MIC in Mueller Hinton gelose; format: cell-based; conditions: Enterobacter aerogenes 09004
Excerpt: as §3, §1

[16] = system: Pseudomonas; assay: MIC in Mueller Hinton gelose; format: cell-based
Excerpt: as §3, §1

[17] = system: A baumanii; assay: MIC in Mueller Hinton gelose; format: cell-based, Acinetobacter baumanii; conditions: A baumanii 09010
Excerpt: as §3, §1

CC(=O)OCC=Cc1ccccc1 [Cinnamyl acetate, cinnamyl acetate]
activity / spectrum in words [1]: intermediate | MIC 50 [2]: > 10000 µg/mL | MIC 90 [2]: > 10000 µg/mL | MIC Range [2]: > 10000 µg/mL | MIC 50 [3]: > 10000 µg/mL | MIC 90 [3]: > 10000 µg/mL | MIC 50 [4]: > 10000 µg/mL | MIC 90 [4]: > 10000 µg/mL

O=C(OCc1ccccc1)c1ccccc1 [Benzyl benzoate, benzyl benzoate]
MIC Range [2]: > 10000 µg/mL | MIC Range [3]: > 10000 µg/mL | MIC Range [4]: > 10000 µg/mL

COc1ccccc1/C=C/C=O [Trans-methoxycinnamaldehyde, trans-2-methoxycinnamaldehyde]
MIC Range [2]: > 10000 µg/mL | MIC Range [3]: > 10000 µg/mL | MIC Range [4]: > 10000 µg/mL

C=CC(C)(O)CCC=C(C)C (centres unmarked) [Linalool, linalool]
activity / spectrum in words [1]: wide | MIC 50 [2]: 2500 µg/mL | MIC 90 [2]: 10000 µg/mL | MIC 50 [3]: 2500 µg/mL | MIC 90 [3]: 10000 µg/mL | MIC 50 [4]: > 10000 µg/mL | MIC 90 [4]: > 10000 µg/mL

O=C/C=C/c1ccccc1 [CNM, trans-cinnamaldehyde]
elimination, bibliographic data [5]: 1.7 h | Mean Log reduction time [6]: 95 min | Mean Log reduction time [7]: 111 min | Mean Log reduction time [8]: 72 min | Mean Log reduction time [9]: 195 min | MIC ([10]; Enterococcus 8152): 0.031% | MIC ([10]; Enterococcus 8153): 0.031% | MIC ([11]; Enterococcus faecium 09001): 0.031% | MIC ([11]; Enterococcus faecium 09002): 0.031% | MIC ([12]; PS aeruginosa 09007): 0.063% | MIC ([12]; PS aeruginosa ATCC): 0.031% | MIC ([12]; Ps aeruginosa 09008): 0.016% | activity / spectrum in words [1]: highly effective on all the strains | MIC ([13]; E. coli 8137): 0.016% | MIC ([13]; E. coli 8138): 0.016% | MIC ([13]; E. coli 8141): 0.016% | MIC ([13]; E. coli 8142): 0.016% | MIC ([13]; E. coli 8150): 0.031% | MIC ([13]; E. coli 8151): 0.031% | MIC ([13]; E. coli 8154): 0.031% | MIC ([13]; E. coli 8155): 0.031% | MIC ([13]; E. coli 8156): 0.031% | MIC ([13]; E. coli 8157): 0.031% | MIC ([13]; E. coli 09003): 0.063% | MIC ([13]; E. coli ATCC 25922): 0.015% | MIC ([14]; Staphylococcus 8143): 0.031% | MIC ([14]; Staphylococcus 8146): 0.031% | MIC ([14]; Staphylococcus 8147): 0.031% | MIC ([14]; Staphylococcus 8148): 0.031% | MIC ([14]; Staphylococcus 8149): 0.016% | MIC ([14]; Staphylococcus 8237): 0.008% | MIC ([14]; Staphylococcus 8238): 0.031% | MIC ([14]; Staphylococcus 8239): 0.031% | MIC ([14]; Staphylococcus 8240): 0.031% | MIC ([14]; Staphylococcus 8241): 0.031% | MIC [15]: 0.063% | MIC ([16]; Pseudomonas 8127): 0.063% | MIC ([16]; Pseudomonas 8128): 0.063% | MIC ([16]; Pseudomonas 8129*): 0.063% | MIC ([16]; Pseudomonas 8130*): 0.125% | MIC ([16]; Pseudomonas 8131*): 0.125% | MIC ([16]; Pseudomonas 8132*): 0.125% | MIC ([16]; Pseudomonas 8133): 0.125% | MIC ([16]; Pseudomonas 8134): 0.016% | MIC ([16]; Pseudomonas 8135*): 0.03% | MIC ([16]; Pseudomonas 8136*): 0.016% | MIC [17]: 0.016% | MIC 50 [2]: 150 µg/mL | MIC 90 [2]: 600 µg/mL | MIC 50 [3]: 150 µg/mL | MIC 90 [3]: 300 µg/mL | MIC 50 [4]: 600 µg/mL | MIC 90 [4]: 1250 µg/mL
